21 molecules from ChEMBL document CHEMBL3608268, “Re-exploring the N-phenylpicolinamide derivatives to develop mGlu4 ligands with improved affinity and in vitro microsomal stability” (Bioorg Med Chem Lett, 2015) can be followed below.

Data set [1] has as its target T1, Metabotropic glutamate receptor 4 (Homo sapiens, UniProt Q14833). Briefly: Displacement of [3H]N-(4-chloro-3-methoxyphenyl)picolinamide from human mGlu4 receptor expressed in CHO cell membranes incubated for 30 mins by liquid scintillation counting method.
The target in data set [2] is T1, Metabotropic glutamate receptor 4. Briefly: Positive allosteric modulator activity at human mGlu4 receptor.
For data set [3], the target named is Metabotropic glutamate receptor 4 (Rattus norvegicus, UniProt P31423). Briefly: Positive allosteric modulator activity at rat mGlu4 receptor.
Sequence of Metabotropic glutamate receptor 4 (Rattus norvegicus, UniProt P31423) (P31423 whole entry): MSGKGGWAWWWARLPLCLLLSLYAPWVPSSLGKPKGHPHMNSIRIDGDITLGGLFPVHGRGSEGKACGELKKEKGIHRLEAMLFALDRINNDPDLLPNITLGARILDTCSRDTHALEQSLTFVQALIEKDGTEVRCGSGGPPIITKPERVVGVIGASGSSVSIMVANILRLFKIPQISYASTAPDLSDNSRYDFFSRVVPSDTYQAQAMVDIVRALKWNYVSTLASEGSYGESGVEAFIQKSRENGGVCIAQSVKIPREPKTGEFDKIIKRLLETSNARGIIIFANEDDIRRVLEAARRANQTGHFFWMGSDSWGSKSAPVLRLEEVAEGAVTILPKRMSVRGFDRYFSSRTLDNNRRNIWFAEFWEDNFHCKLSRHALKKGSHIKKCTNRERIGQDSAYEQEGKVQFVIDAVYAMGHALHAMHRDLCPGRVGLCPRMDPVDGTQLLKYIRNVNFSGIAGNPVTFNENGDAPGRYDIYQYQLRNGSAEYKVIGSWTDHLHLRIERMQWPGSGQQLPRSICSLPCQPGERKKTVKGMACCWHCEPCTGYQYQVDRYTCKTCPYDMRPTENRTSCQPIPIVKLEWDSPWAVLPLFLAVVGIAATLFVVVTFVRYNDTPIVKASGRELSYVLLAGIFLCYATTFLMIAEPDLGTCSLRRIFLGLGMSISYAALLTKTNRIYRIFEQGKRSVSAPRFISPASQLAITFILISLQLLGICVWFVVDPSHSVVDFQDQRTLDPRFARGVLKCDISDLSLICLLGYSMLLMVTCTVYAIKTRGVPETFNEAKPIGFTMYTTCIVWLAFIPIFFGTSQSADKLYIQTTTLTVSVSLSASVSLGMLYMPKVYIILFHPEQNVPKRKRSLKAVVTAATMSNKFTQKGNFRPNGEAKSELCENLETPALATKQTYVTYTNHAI
The next data set deals with Liver microsome. Briefly: Half life in Wistar rat liver microsomes in presence of NADPH generation system by HPLC method. Format: ADME.
The conditions of data set [4]: pampa.
Description: Effective permeability by PAMPA method
Data set [5] concerns the target Metabotropic glutamate receptor 6 (Homo sapiens, UniProt O15303). Briefly: Activity at mGlu6 receptor (unknown origin) expressed in HEK293 cells pre-treated for 15 mins before addition of EC80 concentration of reference agonist for another 15 mins by cAMP accumulation assay. Format: functional, cell-based.
Data set [6] concerns the target Metabotropic glutamate receptor 1 (Homo sapiens, UniProt Q13255). As to the kind of experiment: Activity at mGlu1 receptor (unknown origin) expressed in HEK293 cells by Ca2+ mobilization assay. It counts as functional, cell-based.
Data set [7] concerns the target Metabotropic glutamate receptor 2 (Homo sapiens, UniProt Q14416). As to the kind of experiment: Activity at mGlu2 receptor (unknown origin) expressed in HEK293 cells pre-treated for 15 mins before addition of EC80 concentration of reference agonist for another 15 mins by cAMP accumulation assay. Format: functional, cell-based.
In data set [8] the target is Metabotropic glutamate receptor 8 (Homo sapiens, UniProt O00222). Briefly: Activity at mGlu8 receptor (unknown origin) expressed in HEK293 cells pre-treated for 15 mins before addition of EC80 concentration of reference agonist for another 15 mins by cAMP accumulation assay. It counts as functional, cell-based.
Data set [9] deals with Metabotropic glutamate receptor 5 (Homo sapiens, UniProt P41594). As to the kind of experiment: Activity at mGlu5 receptor (unknown origin) expressed in HEK293 cells by Ca2+ mobilization assay. It counts as functional, cell-based.
Sequence of Metabotropic glutamate receptor 5 (P41594 whole entry): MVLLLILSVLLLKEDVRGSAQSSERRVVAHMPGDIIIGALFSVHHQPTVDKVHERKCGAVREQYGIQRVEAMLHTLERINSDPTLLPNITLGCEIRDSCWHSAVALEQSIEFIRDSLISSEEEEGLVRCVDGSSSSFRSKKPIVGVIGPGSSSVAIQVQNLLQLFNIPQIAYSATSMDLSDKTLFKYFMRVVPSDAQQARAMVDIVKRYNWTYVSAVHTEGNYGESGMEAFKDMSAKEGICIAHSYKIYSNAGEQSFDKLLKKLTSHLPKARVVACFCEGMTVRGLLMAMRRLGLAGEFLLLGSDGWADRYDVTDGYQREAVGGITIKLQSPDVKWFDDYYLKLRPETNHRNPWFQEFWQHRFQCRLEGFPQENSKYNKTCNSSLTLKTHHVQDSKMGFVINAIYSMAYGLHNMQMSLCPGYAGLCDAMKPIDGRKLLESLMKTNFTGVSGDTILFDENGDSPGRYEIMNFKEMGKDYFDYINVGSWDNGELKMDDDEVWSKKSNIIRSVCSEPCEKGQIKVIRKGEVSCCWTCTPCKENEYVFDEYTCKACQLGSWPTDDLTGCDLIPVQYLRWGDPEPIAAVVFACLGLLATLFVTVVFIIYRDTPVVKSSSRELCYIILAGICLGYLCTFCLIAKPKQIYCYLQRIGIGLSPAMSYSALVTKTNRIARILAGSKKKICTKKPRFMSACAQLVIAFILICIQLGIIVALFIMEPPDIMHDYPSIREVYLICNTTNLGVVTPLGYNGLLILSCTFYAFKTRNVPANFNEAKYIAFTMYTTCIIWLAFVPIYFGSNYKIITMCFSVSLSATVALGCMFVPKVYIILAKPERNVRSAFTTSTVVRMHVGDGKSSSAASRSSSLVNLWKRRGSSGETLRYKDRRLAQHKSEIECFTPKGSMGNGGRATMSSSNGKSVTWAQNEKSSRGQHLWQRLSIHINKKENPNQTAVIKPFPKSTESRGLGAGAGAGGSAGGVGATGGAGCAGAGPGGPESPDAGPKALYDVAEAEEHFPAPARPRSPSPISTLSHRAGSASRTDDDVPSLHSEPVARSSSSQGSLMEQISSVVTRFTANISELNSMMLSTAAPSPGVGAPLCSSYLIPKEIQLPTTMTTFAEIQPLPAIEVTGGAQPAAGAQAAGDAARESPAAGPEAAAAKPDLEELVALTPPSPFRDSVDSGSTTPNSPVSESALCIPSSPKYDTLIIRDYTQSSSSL

T1 sequence (Q14833 whole entry): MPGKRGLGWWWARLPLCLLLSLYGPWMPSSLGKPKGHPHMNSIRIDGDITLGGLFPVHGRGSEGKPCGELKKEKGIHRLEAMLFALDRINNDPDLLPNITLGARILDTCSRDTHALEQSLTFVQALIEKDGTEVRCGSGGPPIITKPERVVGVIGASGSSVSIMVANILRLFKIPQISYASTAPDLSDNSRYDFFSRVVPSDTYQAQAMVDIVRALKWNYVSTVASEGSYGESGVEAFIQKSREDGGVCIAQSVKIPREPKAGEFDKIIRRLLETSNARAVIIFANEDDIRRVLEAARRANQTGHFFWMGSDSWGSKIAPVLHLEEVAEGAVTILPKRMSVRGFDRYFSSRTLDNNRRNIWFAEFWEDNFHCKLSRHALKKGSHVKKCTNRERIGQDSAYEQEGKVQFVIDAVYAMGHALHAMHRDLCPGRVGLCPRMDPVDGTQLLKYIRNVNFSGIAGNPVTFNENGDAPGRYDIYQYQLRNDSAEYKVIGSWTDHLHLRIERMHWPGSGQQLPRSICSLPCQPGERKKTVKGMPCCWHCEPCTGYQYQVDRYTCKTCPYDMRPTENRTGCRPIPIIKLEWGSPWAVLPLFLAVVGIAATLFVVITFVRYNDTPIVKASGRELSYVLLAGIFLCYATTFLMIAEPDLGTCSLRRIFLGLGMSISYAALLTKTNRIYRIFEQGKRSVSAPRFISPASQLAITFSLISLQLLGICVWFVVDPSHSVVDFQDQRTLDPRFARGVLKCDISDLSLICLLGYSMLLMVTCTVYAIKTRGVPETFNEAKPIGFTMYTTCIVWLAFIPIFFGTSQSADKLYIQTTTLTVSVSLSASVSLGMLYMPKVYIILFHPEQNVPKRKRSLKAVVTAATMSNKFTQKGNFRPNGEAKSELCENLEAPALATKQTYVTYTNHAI
Sequence of Metabotropic glutamate receptor 1 (Q13255 whole entry): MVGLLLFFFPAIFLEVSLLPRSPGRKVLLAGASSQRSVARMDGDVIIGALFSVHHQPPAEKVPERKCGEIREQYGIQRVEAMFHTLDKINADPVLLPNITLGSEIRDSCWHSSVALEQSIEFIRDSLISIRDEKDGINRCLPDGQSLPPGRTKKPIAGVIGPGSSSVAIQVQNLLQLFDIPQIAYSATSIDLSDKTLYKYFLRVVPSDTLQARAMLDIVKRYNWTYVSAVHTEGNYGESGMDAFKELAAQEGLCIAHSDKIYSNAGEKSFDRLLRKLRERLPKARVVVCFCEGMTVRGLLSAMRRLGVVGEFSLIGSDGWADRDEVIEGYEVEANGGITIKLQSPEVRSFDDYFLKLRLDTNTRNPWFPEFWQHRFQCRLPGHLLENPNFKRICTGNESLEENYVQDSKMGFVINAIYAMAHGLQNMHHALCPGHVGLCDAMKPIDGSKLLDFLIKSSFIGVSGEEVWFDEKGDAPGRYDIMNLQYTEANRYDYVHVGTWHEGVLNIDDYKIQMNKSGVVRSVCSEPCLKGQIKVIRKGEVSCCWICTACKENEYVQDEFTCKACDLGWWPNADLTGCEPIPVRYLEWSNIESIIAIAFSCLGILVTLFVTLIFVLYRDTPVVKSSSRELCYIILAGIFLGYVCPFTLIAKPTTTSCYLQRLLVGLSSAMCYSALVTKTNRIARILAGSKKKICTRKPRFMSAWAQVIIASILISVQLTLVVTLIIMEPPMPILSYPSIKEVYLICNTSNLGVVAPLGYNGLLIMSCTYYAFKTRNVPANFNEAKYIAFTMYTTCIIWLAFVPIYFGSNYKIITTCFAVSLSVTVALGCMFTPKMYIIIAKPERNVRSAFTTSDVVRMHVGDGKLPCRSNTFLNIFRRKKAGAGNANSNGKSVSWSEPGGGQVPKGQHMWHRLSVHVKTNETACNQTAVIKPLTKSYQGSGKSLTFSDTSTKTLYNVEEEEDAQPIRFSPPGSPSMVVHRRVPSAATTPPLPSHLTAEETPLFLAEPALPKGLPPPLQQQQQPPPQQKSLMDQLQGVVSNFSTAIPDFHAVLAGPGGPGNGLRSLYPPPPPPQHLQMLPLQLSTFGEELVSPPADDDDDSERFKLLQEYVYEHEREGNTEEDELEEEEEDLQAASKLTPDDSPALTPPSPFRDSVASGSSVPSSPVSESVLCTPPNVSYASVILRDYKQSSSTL
Sequence of Metabotropic glutamate receptor 2 (Q14416 whole entry): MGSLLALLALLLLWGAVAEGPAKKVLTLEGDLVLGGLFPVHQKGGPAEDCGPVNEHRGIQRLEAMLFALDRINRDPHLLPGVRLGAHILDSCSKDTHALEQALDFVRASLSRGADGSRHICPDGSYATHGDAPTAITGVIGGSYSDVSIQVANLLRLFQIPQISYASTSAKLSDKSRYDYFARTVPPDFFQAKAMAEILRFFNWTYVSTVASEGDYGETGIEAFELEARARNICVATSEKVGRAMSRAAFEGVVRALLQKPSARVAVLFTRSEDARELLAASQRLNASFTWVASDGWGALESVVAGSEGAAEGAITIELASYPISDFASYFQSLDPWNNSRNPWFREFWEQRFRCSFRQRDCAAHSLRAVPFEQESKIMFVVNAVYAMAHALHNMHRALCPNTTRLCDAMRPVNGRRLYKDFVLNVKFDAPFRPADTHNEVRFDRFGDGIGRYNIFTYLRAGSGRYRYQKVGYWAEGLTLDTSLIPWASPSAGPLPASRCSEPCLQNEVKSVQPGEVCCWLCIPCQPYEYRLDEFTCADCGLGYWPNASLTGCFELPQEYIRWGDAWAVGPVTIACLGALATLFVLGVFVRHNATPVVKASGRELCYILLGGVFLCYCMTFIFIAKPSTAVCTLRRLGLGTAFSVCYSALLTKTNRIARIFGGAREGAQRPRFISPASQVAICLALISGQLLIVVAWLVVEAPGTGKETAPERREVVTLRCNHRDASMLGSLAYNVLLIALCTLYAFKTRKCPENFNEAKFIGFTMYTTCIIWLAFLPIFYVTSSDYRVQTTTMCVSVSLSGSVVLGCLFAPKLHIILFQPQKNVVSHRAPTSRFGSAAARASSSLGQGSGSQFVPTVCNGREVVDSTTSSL

In the case of `CSc1cccc(NC(=O)c2ccccn2)c1`, in data set [1], the IC50 came to 0.0049 µM. In data set [2], `c1cnc(Nc2nc3c(s2)CCCc2[nH]ncc2-3)nc1` yielded an EC50 of 0.009 µM. In [1], `COc1cc(NC(=O)c2cccc(F)n2)ccc1Cl` returned an IC50 of 0.0073 µM. Turning to `Cc1ccnc(Nc2nc(-c3cn[nH]c3)c(C)s2)n1`, the EC50 in [3] worked out at 0.009 µM. The t1/2 with Liver microsome came to 7 min. The same molecule returned a Peff in data set [4] of 2570 nm/s. Regarding `COc1cc(NC(=O)c2ccccn2)ccc1Br`, the IC50 in [1] was 0.322 µM.

In the case of `COc1cc(NC(=O)c2ccccn2)ccc1I`, the IC50 in data set [1] was determined as 0.146 µM. For `COc1cccc(NC(=O)c2ccccn2)c1`, the half-inhibitory concentration (IC50) in [1] turned out to be 0.0137 µM. Same read-out and setting: the same measure for `O=C(Nc1cccc(OC(F)F)c1)c1cccc(F)n1`: 0.0067 µM.

`COc1cc(NC(=O)c2cccc(F)n2)ccc1F`: the half-maximal inhibitory concentration (IC50) in [1] came to 0.0892 µM. On the same count and under the same terms, the same measure for `N#Cc1cccc(NC(=O)c2ccccn2)c1`: 0.0104 µM; for `N#Cc1cc(NC(=O)c2ccccn2)ccc1F`: 0.0074 µM.

`N#Cc1cc(NC(=O)c2ccccn2)ccc1Cl` came in with an IC50 in data set [1] of 0.0053 µM. Take `N#Cc1cc(NC(=O)c2ccccn2)ccc1Br`: in data set [1], the IC50 was found to be 0.047 µM. In turn, `N#Cc1cc(NC(=O)c2ccccn2)ccc1I` came in with an IC50 in [1] of 0.172 µM. For `O=C(Nc1ccc(Cl)c(OCF)c1)c1ccccn1`, the t1/2 in the data set on Liver microsome is 5.8 min. This molecule registered a Peff in [4] of 2720 nm/s. In addition, the IC50 in data set [1] is 0.0032 µM.

For `[2H]C([2H])(F)Oc1cc(NC(=O)c2ccccn2)ccc1Cl`, the IC50 is > 30 µM in data set [5]; > 30 µM in [6]; > 30 µM in data set [7]; > 30 µM in data set [8]; > 30 µM in data set [9]; 0.0032 µM in [1]. Further, in the data set with Liver microsome, the t1/2 came to 7.4 min. Molecule `[2H]C([2H])(F)Oc1cccc(NC(=O)c2ccccn2)c1` displayed an IC50 in data set [1] of 0.0037 µM.

Regarding `O=C(Nc1cccc(OC(F)F)c1)c1ccccn1`, the t1/2 in the data set with Liver microsome is reported as 5.2 min. Also, the Peff in [4] turned out to be 2140 nm/s.

On to `COc1cc(NC(=O)c2ccccn2)ccc1F`, for which the IC50 in data set [1] amounted to 0.0316 µM. With `O=C(Nc1cccc(Cl)c1)c1ccccn1`, the EC50 worked out at 0.33 µM in [3] and 1.2 µM in data set [2]. In the case of `COc1cc(NC(=O)c2ccccn2)ccc1Cl`, the t1/2 in the data set with Liver microsome amounted to 4.9 min. This molecule also registered a Peff in data set [4] of 2560 nm/s.
